Data as given in the supplement of paper PMC13380429.
± gives the standard deviation of the averaged measurements.

Legend:
Settings in all cases: 72 h
Caco-2 [1] = assay: cell viability relative to DMSO; higher = less toxic
Calu-3 [2] = assay: as above
HepG2 [3] = assay: as above
U2OS [4] = assay: as above
Vero E6 [5] = assay: as above
Caco-2 [6] = assay: relative viability EC50 (midpoint between 100% and the lowest measured viability); higher = less toxic
Calu-3 [7] = assay: as above
HepG2 [8] = assay: as above
U2OS [9] = assay: as above
Vero E6 [10] = assay: as above
Caco-2 [11] = assay: drug sensitivity score (DSS) for viability; higher = more toxic; extreme values may be limits of the assay
Calu-3 [12] = assay: as above
HepG2 [13] = assay: as above
U2OS [14] = assay: as above
Vero E6 [15] = assay: as above

Compound | cell viability (Caco-2 [1]; 1 nM) | cell viability (Caco-2 [1]; 10 nM) | cell viability (Caco-2 [1]; 100 nM) | cell viability (Caco-2 [1]; 1000 nM) | cell viability (Caco-2 [1]; 10000 nM) | cell viability (Calu-3 [2]; 1 nM) | cell viability (Calu-3 [2]; 10 nM) | cell viability (Calu-3 [2]; 100 nM) | cell viability (Calu-3 [2]; 1000 nM) | cell viability (Calu-3 [2]; 10000 nM) | cell viability (HepG2 [3]; 1 nM) | cell viability (HepG2 [3]; 10 nM) | cell viability (HepG2 [3]; 100 nM) | cell viability (HepG2 [3]; 1000 nM) | cell viability (HepG2 [3]; 10000 nM) | cell viability (U2OS [4]; 1 nM) | cell viability (U2OS [4]; 10 nM) | cell viability (U2OS [4]; 100 nM) | cell viability (U2OS [4]; 1000 nM) | cell viability (U2OS [4]; 10000 nM) | cell viability (Vero E6 [5]; 1 nM) | cell viability (Vero E6 [5]; 10 nM) | cell viability (Vero E6 [5]; 100 nM) | cell viability (Vero E6 [5]; 1000 nM) | cell viability (Vero E6 [5]; 10000 nM) | relative viability EC50 (Caco-2 [6]) | relative viability EC50 (Calu-3 [7]) | relative viability EC50 (HepG2 [8]) | relative viability EC50 (U2OS [9]) | relative viability EC50 (Vero E6 [10]) | drug sensitivity score (Caco-2 [11]) | drug sensitivity score (Calu-3 [12]) | drug sensitivity score (HepG2 [13]) | drug sensitivity score (U2OS [14]) | drug sensitivity score (Vero E6 [15])
CC(C)C(=O)Nc1ccc([N+](=O)[O-])c(C(F)(F)F)c1 [flutamide] | 107% | 108% | 92.1% | 116% | 85.7% | 101% | 96.2% | 99.6% | 101% | 94.9% | 94.5% | 107% | 96.9% | 84.2% | 90.7% | 92% | 97.2% | 94.3% | 100% | 93.8% | 106% | 89.8% | 104% | 107% | 111% | > 10 µM | > 10 µM | > 10 µM | > 10 µM | > 10 µM | 0 | 0 | 2 | 0 | 0
C[n+]1cc2c3c(ccc2c2ccc4cc5c(cc4c21)OCO5)OCO3 [sanguinarium-chloride] | 85.8% | 103% | 73.1% | 82.4% | 2.2% | 101% | 96.4% | 83.9% | 91.1% | 0.9% | 93% | 103% | 96.7% | 64.3% | 0% | 96.6% | 98.5% | 97% | 92.1% | 0.2% | 109% | 99.8% | 105% | 75.9% | 0.1% | 1.82 µM | 2.42 µM | 1.29 µM | 2.52 µM | 1.58 µM | 8.3 | 6.9 | 10.3 | 6.8 | 9.2
CO[C@H]1/C=C/O[C@@]2(C)Oc3c(C)c(O)c4c(O)c(c5c(nc6cc(C)ccn65)c4c3C2=O)NC(=O)/C(C)=C\C=C\[C@H](C)[C@H](O)[C@@H](C)[C@@H](O)[C@@H](C)[C@H](OC(C)=O)[C@@H]1C [rifaximin] | 137% | 112% | 87% | 98.2% | 96.4% | 94.7% | 95% | 89% | 101% | 94.6% | 110% | 95.3% | 102% | 104% | 106% | 96.7% | 99.3% | 94.6% | 93.3% | 96.4% | 106% | 93.6% | 108% | 106% | 117% | > 10 µM | > 10 µM | > 10 µM | > 10 µM | > 10 µM | 0 | 0 | 0 | 0 | 0
O=C(O)Cc1cccc2c(=O)cc(-c3ccccc3)oc12 [mitoflaxone] | 86% | 101% | 89.6% | 104% | 112% | 96% | 102% | 97% | 95.8% | 112% | 98.3% | 92.3% | 93.2% | 103% | 114% | 99.5% | 98% | 97.3% | 102% | 104% | 96.9% | 99.8% | 95.7% | 94.9% | 107% | > 10 µM | > 10 µM | > 10 µM | > 10 µM | > 10 µM | 0 | 0 | 0 | 0 | 0
CC1(C)O[C@H]2CC(=O)OC[C@]23[C@H]2CC[C@@]4(C)[C@H](c5ccoc5)OC(=O)[C@H]5O[C@]54[C@]2(C)C(=O)C[C@@H]13 [limonin] | 97.5% | 95.8% | 106% | 98.5% | 105% | 104% | 89.5% | 109% | 99.6% | 102% | 102% | 105% | 91.5% | 111% | 97.2% | 95.6% | 98.6% | 107% | 99% | 100% | 97.1% | 97.1% | 93.7% | 98.6% | 104% | > 10 µM | > 10 µM | > 10 µM | > 10 µM | > 10 µM | 0 | 0 | 0 | 0 | 0
CCCCCCOc1nsnc1C1=CCCN(C)C1 [xanomeline] | 109% | 93.8% | 99.1% | 92.3% | 99.1% | 101% | 115% | 100% | 104% | 96.6% | 102% | 102% | 100% | 99.3% | 79.3% | 95.3% | 102% | 97.5% | 98.9% | 92.3% | 105% | 104% | 106% | 101% | 95.9% | > 10 µM | > 10 µM | > 10 µM | > 10 µM | > 10 µM | 0 | 0 | 0.7 | 0 | 0
CC1(C)[C@H]2CC[C@]1(C)[C@@H](O)[C@H]2O [cis-exo-camphanediol-2,3] | 99.8 ± 5.1% | 104 ± 12% | 100 ± 9.5% | 102 ± 15% | 95.5 ± 5.4% | 104 ± 7.5% | 100 ± 1.9% | 106.2 ± 0.64% | 102 ± 5.9% | 97.85 ± 0.21% | 92% | 88.7% | 98.7% | 98.1% | 102% | 99.55 ± 0.071% | 106 ± 1.4% | 99 ± 1.6% | 99.5 ± 3.2% | 99 ± 5.7% | 97.8 ± 2.5% | 96.5 ± 10% | 96.8 ± 1.5% | 94.8 ± 6.7% | 95.6 ± 3.2% | > 10 µM | > 10 µM | > 10 µM | > 10 µM | > 10 µM | 0 | 0 | 0 | 0 | 0
CCCCCCCNS(=O)(=O)c1cccc2c(Cl)cccc12 [SC-10] | 112% | 99.9% | 84.6% | 123% | 90.7% | 99.7% | 106% | 93.8% | 105% | 105% | 98.3% | 94.8% | 108% | 97.5% | 96.3% | 97.7% | 98.1% | 93.5% | 103% | 96.2% | 117% | 95.8% | 102% | 100% | 95.3% | > 10 µM | > 10 µM | > 10 µM | > 10 µM | > 10 µM | 0 | 0 | 0 | 0 | 0
NC/C(=C/F)CCc1ccc(F)cc1 [mofegiline] | 89.5% | 96.7% | 85.8% | 90.4% | 92.4% | 102% | 97.7% | 102% | 104% | 88.4% | 98% | 91.5% | 87.9% | 90% | 97.4% | 98.6% | 99.3% | 95.7% | 96.2% | 96.3% | 92.5% | 102% | 90.5% | 91.7% | 95% | > 10 µM | > 10 µM | > 10 µM | > 10 µM | > 10 µM | 0 | 0 | 0 | 0 | 0
CCC1(CC)C(=O)NC(=O)N(C)C1=O [metharbital] | 94.3% | 97.7% | 104% | 102% | 93.1% | 110% | 92.6% | 110% | 98.4% | 95% | 91.8% | 104% | 95.9% | 102% | 103% | 100% | 93.4% | 99.1% | 92.9% | 97.1% | 93% | 96.8% | 94.1% | 92.3% | 103% | > 10 µM | > 10 µM | > 10 µM | > 10 µM | > 10 µM | 0 | 0 | 0 | 0 | 0
COc1cc(Br)c(S(=O)(=O)Nc2ccc(Cl)c(O[C@@H]3CCN(C)C3)c2)cc1OC | 104% | 93.7% | 99.7% | 94.9% | 90% | 80.8% | 99.2% | 90.3% | 94.3% | 85% | 97.6% | 98.3% | 106% | 91.8% | 36.3% | 95.2% | 97.4% | 88.5% | 97.7% | 95% | 101% | 93.6% | 96.1% | 97.8% | 108% | > 10 µM | > 10 µM | 2.13 µM | > 10 µM | > 10 µM | 0 | 0 | 4.9 | 0 | 0
Cc1nn(-c2ccccc2)c(C)c1/C=N/N1CCN(Cc2ccccc2)CC1 [SANT-1] | 105% | 102% | 99.2% | 94% | 104% | 98.6% | 93.8% | 93.1% | 81.7% | 94.3% | 87.1% | 92.3% | 87% | 99.7% | 74.1% | 105% | 98.3% | 102% | 99.5% | 102% | 98.1% | 99.7% | 94.6% | 102% | 106% | > 10 µM | > 10 µM | > 10 µM | > 10 µM | > 10 µM | 0 | 0.2 | 0 | 0 | 0
O=C1CN=C(c2cccc(Br)c2)c2oc3ccccc3c2N1 [5-BDBD] | 101% | 96.6% | 102% | 106% | 97% | 103% | 97.2% | 112% | 96.8% | 111% | 98.3% | 100% | 94.4% | 96.8% | 92.5% | 104% | 97.5% | 95.5% | 99.7% | 101% | 96.7% | 92.8% | 94.6% | 93.5% | 95.9% | > 10 µM | > 10 µM | > 10 µM | > 10 µM | > 10 µM | 0 | 0 | 0 | 0 | 0
Nc1ncnc2nc(-c3ccc(N4CCOCC4)nc3)cc(-c3cccc(Br)c3)c12 [ABT-702] | 107% | 99.9% | 102% | 104% | 93.4% | 103% | 83.3% | 112% | 95.3% | 100% | 104% | 96.4% | 96.5% | 108% | 89.6% | 106% | 103% | 104% | 99.8% | 101% | 96.1% | 100% | 95.2% | 94.4% | 88.1% | > 10 µM | > 10 µM | > 10 µM | > 10 µM | > 10 µM | 0 | 0 | 0 | 0 | 0
